Measurements reported in patent US20050221328A1, “Inhibitors of inflammatory gene activity and cholesterol biosynthesis” (Wyeth, priority 2002, published 2005).

Experiments:
[1] = test system: Fnk, JAB, LIX, bcl-3 and SHP; assay: Liver expression of Fnk, JAB, LIX, bcl-3 and SHP by realtime PCR after estrogen receptor ligand pretreatment and IL-1β
Protocol: Referring to FIG. 3a, to distinguish these two mechanisms, the IL-1β fold induction of Fnk, JAB, LIX, and bcl-3 and the IL-1β fold repression of SHP was quantified in animals pretreated with vehicle (black bars) or 100 ug/kg/day EE (grey bars). Liver RNA levels of each gene (mean +/−SEM) were determined by realtime PCR of RNA from each individual animal.
Referring to FIGS. 4a, 4b, 4c, 4d and 4e, experiments were conducted to determine whether EE blocks IL-1β induction of gene expression by an estrogen receptor (ER) dependent mechanism. Estrogens can regulate gene expression by many mechanisms including ER independent pathways such as antioxidant mechanisms. […] Liver expression levels of Fnk, JAB, LIX, bcl-3 and SHP (mean +/−SEM) were determined by realtime PCR.
Referring to FIGS. 5a, 5b, 5c, 5d, and 5e, experiments were conducted to determine whether ERα is required for EE regulation of gene expression in the liver. To determine whether ERα or ERβ mediated the EE effects on IL-1β gene expression in the liver, C57BL/6 wild type mice, C57BL/6 ERαKO mice, or 129 ERβKO mice were pretreated with vehicle (black bars) or […] EE (gray bars) for 5 days followed by a 1 hour treatment with IL-1β. Liver expression levels of Fnk, JAB, LIX, bcl-3, and SHP (mean +/−SEM) were quantified by realtime PCR, with expression in animals receiving vehicle+PBS defined as 1.0.

mouse liver [2] = settings: GeneChip, 1 h after 20 ug/kg IL-1β ip, pretreated 5 days with vehicle or 100 ug/kg/day EE sc, vehicle+PBS=1.0
Protocol: Experiments were conducted to evaluate IL-1β regulation of gene expression in the mouse liver. Ovariectomized C57BL/6 mice were pretreated by subcutaneous administration of either corn oil/ethanol vehicle or 100 ug/kg/day ethynylestradiol (EE) for 5 days. On the fifth day, the mice received an intraperitoneal injection of either PBS or 20 ug/kg IL-1β in PBS. One hour later the livers were removed and polyA RNA was prepared. Global gene expression was determined by analysis using murine 11K GeneChips from Affymetrix. For each gene, the level of expression in animals receiving vehicle pretreatment plus PBS was defined as 1.0, with the expression levels in the mice receiving vehicle pretreatment±IL-1β or EE pretreatment±IL-1β defined relative to this. The results shown are the mean from two independent experiments.
The fold regulation of each gene is plotted for animals receiving vehicle pretreatment x-axis) vs. animals receiving pretreatment with EE (y-axis). Genes with IL-1β induction unaffected by EE pretreatment would lie along the dotted diagonal.

mouse liver [3] = assay: EE induction of gene expression in the mouse liver (GeneChip); type: in vivo; settings: 100 ug/kg/day EE sc 5 days;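 note: ovariectomized C57BL/6 mice, liver polyA RNA on Affymetrix murine 11K GeneChips, fold expression versus vehicle-pretreated PBS-injected mice set to 1.0, mean of two independent experiments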
Protocol: Ovariectomized C57BL/6 mice were pretreated by subcutaneous administration of either corn oil/ethanol vehicle or 100 ug/kg/day ethynylestradiol (EE) for 5 days. […] One hour later the livers were removed and polyA RNA was prepared. Global gene expression was determined by analysis using murine 11K GeneChips from Affymetrix. For each gene, the level of expression in animals receiving vehicle pretreatment plus PBS was defined as 1.0, with the expression levels in the mice receiving vehicle pretreatment±IL-1β or EE pretreatment±IL-1β defined relative to this. The results shown are the mean from two independent experiments.
To determine whether EE induction of any other gene could explain the inhibition of IL-1β gene inductions, the GeneChip results were analyzed for EE induction of gene expression.

Fnk, JAB, LIX, and bcl-3 = assay: EE alteration of IL-1β induction of Fnk, JAB, LIX and bcl-3 in liver, spleen and lung; type: in vivo, mouse; settings: EE pretreatment
Text: The requirement for ERα for EE activity in the liver is consistent with the nearly exclusive presence of ERα in the liver (as determined by realtime PCR, panel A). In contrast, the lung expresses relatively low levels of ERα and high levels of ERB. […] In contrast, EE pretreatment had no effect on IL-1β induction of Fnk, JAB, LIX, or bcl-3 in the lung.

[4] = mouse liver, EE treated mice vs vehicle treated mice
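Throughout, for IL-1 Induction A20 (Tnfaip3): ovariectomized C57BL/6 mice, liver polyA RNA profiled, values are fold expression relative to vehicle plus PBS, averaged over two independent experiments.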
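Throughout, for IL-1 Induction B94, TNF-α induced protein 2 (Tnfaip2): ovariectomized C57BL/6 mice, liver polyA RNA profiled, values are fold expression relative to vehicle plus PBS, averaged over two independent experiments.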
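Throughout, for IL-1 Induction C/EBPδ (Cebpd): ovariectomized C57BL/6 mice, liver polyA RNA profiled, values are fold expression relative to vehicle plus PBS, averaged over two independent experiments.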
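Throughout, for IL-1 Induction CD14 (Cd14): ovariectomized C57BL/6 mice, liver polyA RNA profiled, values are fold expression relative to vehicle plus PBS, averaged over two independent experiments.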

C#C[C@]1(O)CC[C@H]2[C@@H]3CCc4cc(O)ccc4[C@H]3CC[C@@]21C [EE, ethynylestradiol]
EE inhibition of IL-1β regulation of Fnk, JAB, LIX, bcl-3, SHP in animals lacking ERβ vs wild type ([1]; 129 ERβKO mice vs C57BL/6 wild type, 10 ug/kg/day EE 5 days, IL-1β 1 hour): comparable
effect on IL-1β regulation of Fnk, JAB, LIX, bcl-3, SHP in animals lacking ERα ([1]; C57BL/6 ERαKO mice, 10 ug/kg/day EE 5 days, IL-1β 1 hour): no effect
effect on regulation of liver Fnk, JAB, LIX, bcl-3 and SHP expression vs IL-1β alone ([1]; mice, 100 ug/kg/day EE, 1 or 10 mg/kg/day E2, 30 mg/kg/day genistein, 5 mg/kg/day raloxifene, 10 mg/kg/day ICI182780, plus IL-1β): greatest effect
IL-1 repression of SHP expression ([1]; mouse liver, realtime PCR, vehicle treated or 100 ug/kg/day EE treated animals): 85%
IL-1 induction of bcl-3 ([1]; mouse liver, realtime PCR, vehicle treated or 100 ug/kg/day EE treated mice, IL-1 vs PBS): 5.2 fold
IL-1β fold induction of Fnk, JAB, and LIX ([1]; mouse liver, 100 ug/kg/day EE pretreated vs vehicle): reduced
IL-1β fold regulation for bcl-3 and SHP ([1]; mouse liver, 100 ug/kg/day EE treated vs vehicle): the same
inhibition of IL-1β induction of Fnk, JAB, LIX and bcl-3 ([1]; mouse liver, 100 ug/kg/day EE, 30 mg/kg/day genistein, 5 mg/kg/day raloxifene): inhibited
basal expression of SHP [1, 4]: increased
basal expression of bcl-3 [1, 4]: repressed
IL-1 Induction A20 (Tnfaip3) (mouse liver [2]): 11.4 fold
IL-1 Induction B94, TNF-α induced protein 2 (Tnfaip2) (mouse liver [2]): 17.7 fold
IL-1 Induction C/EBPδ (Cebpd) (mouse liver [2]): 5.2 fold
IL-1 Induction CD14 (Cd14) (mouse liver [2]): 6.1 fold
IL-1 Induction CD83 (Cd83) (mouse liver [2]): 4.0 fold
IL-1 Induction E-selectin (Sele) (mouse liver [2]): 5.2 fold
IL-1 Induction Ets transcription factor ELF3 (Elf3) (mouse liver [2]): 6.7 fold
IL-1 Induction G0/G1 switch gene 2 (G0s2) (mouse liver [2]): 0.05 fold
IL-1 Induction GTP binding protein IRG-47 (lfi47) (mouse liver [2]): 3.2 fold
IL-1 Induction Gadd45 (Gadd45a) (mouse liver [2]): 3.6 fold
IL-1 Induction Glvr-1 (Slc20a1) (mouse liver [2]): 5.8 fold
IL-1 Induction H-2Ld (H-2L) (mouse liver [2]): 4.1 fold
IL-1 Induction ICAM-1 (lcam1) (mouse liver [2]): 38.4 fold
IL-1 Induction IL-1m (Il1m) (mouse liver [2]): 18.9 fold
IL-1 Induction IL-15 receptor (Il15ra) (mouse liver [2]): 2.7 fold
IL-1 Induction IxBa (Nfkbia) (mouse liver [2]): 7.4 fold
IL-1 Induction JAB, suppressor of cytokine signaling 1 (Cish1) (mouse liver [2]): 1.4 fold
IL-1 Induction JE/MCP-1 (Scya2) (mouse liver [2]): 64.4 fold
IL-1 Induction LIX (Scyb5) (mouse liver [2]): 2.9 fold
IL-1 Induction LPS inducible C—C chemokine receptor related (AF030185) (mouse liver [2]): 5.6 fold
IL-1 Induction M-CSF (Csf1) (mouse liver [2]): 23.9 fold
IL-1 Induction MARCKS-like macrophage protein (Mlp) (mouse liver [2]): 5.1 fold
IL-1 Induction MIG (Scyb9) (mouse liver [2]): 5.4 fold
IL-1 Induction MIP2 (Scyb2) (mouse liver [2]): 91.1 fold
IL-1 Induction MIP-1 gamma (Scya9) (mouse liver [2]): 1.9 fold
IL-1 Induction MyD118 (GADD45b) (mouse liver [2]): 12.9 fold
IL-1 Induction NF-E2 related factor 2 (NRF2) (Nfe212) (mouse liver [2]): 7.2 fold
IL-1 Induction NF-kappa-B p105 (Nfkb1) (mouse liver [2]): 6.2 fold
IL-1 Induction NFkB p100 (Nfkb2) (mouse liver [2]): 2.8 fold
IL-1 Induction PAI-1 (Serpine1) (mouse liver [2]): 40.8 fold
IL-1 Induction PDGF-induced KC (Gro1) (mouse liver [2]): 6.1 fold
IL-1 Induction PIM-1 protein kinase (Pim1) (mouse liver [2]): 2.1 fold
IL-1 Induction SHP (NrGb2) (mouse liver [2]): 0.53 fold
IL-1 Induction T-cell death associated gene (Tdag) (mouse liver [2]): 2.2 fold
IL-1 Induction T-cell specific GTPase (Tgtp) (mouse liver [2]): 2.8 fold
IL-1 Induction TGFB inducible early growth response (Tieg) (mouse liver [2]): 0.38 fold
IL-1 Induction Ubiquitin-conjugating E2 enzyme variant 2 (Ube2v2) (mouse liver [2]): 5.3 fold
IL-1 Induction VCAM-1 (Vcam1) (mouse liver [2]): 12.5 fold
IL-1 Induction adrenergic receptor, beta 2 (Adrb2) (mouse liver [2]): 3.1 fold
IL-1 Induction adrenomedullin (Adm) (mouse liver [2]): 10.0 fold
IL-1 Induction apoptosis inhibitor 1 (Birc2) (mouse liver [2]): 8.9 fold
IL-1 Induction apoptosis inhibitor 2 (Birc3) (mouse liver [2]): 4.3 fold
IL-1 Induction bcl-3 (Bcl3) (mouse liver [2]): 6.2 fold
IL-1 Induction c-JUN (Jun) (mouse liver [2]): 5.6 fold
IL-1 Induction calcium binding protein A6 (S100a6) (mouse liver [2]): 2.6 fold
IL-1 Induction calgranulin A (S100A8) (mouse liver [2]): 10.7 fold
IL-1 Induction calgranulin B (S100a9) (mouse liver [2]): 25.7 fold
IL-1 Induction cytokine-inducible kinase Fnk (Cnk) (mouse liver [2]): 0.3 fold
IL-1 Induction gly96 (ler3) (mouse liver [2]): 43.8 fold
IL-1 Induction growth factor receptor bound protein 7 (Grb7) (mouse liver [2]): 0.13 fold
IL-1 Induction guanylate nucleotide binding protein 2 (Gbp2) (mouse liver [2]): 3.6 fold
IL-1 Induction helix-loop-helix factor HES-1 (Hes1) (mouse liver [2]): 0.25 fold
IL-1 Induction heme oxygenase 1 (Hmox1) (mouse liver [2]): 3.0 fold
IL-1 Induction hsp68 (Hsp70-3) (mouse liver [2]): 1.5 fold
IL-1 Induction inducible 6-phosphofructo-2-kinase (AA163244) (mouse liver [2]): 3.0 fold
IL-1 Induction inhibitor of DNA binding 3 (idb3) (mouse liver [2]): 3.1 fold
IL-1 Induction insulin-like growth factor binding protein 1 (lgfbp1) (mouse liver [2]): 4.3 fold
IL-1 Induction intercrine (Scya7) (mouse liver [2]): 11.4 fold
IL-1 Induction interferon regulatory factor 1 (Irf1) (mouse liver [2]): 9.0 fold
IL-1 Induction junB (Junb) (mouse liver [2]): 2.6 fold
IL-1 Induction lipocalin 2 (Lcn2) (mouse liver [2]): 2.9 fold
IL-1 Induction lkB-beta (Nfkbib) (mouse liver [2]): 2.8 fold
IL-1 Induction m-myc (Myc) (mouse liver [2]): 3.4 fold
IL-1 Induction macrophage interferon inducible protein 10 (Scyb10) (mouse liver [2]): 39.3 fold
IL-1 Induction metalloproteinase-disintegrin (Adamts1) (mouse liver [2]): 4.6 fold
IL-1 Induction molecule possessing ankyrin-repeats induced by LPS (aa614971) (mouse liver [2]): 22.7 fold
IL-1 Induction myocyte-enriched calcineurin interactin protein (Dscrl) (mouse liver [2]): 9.3 fold
IL-1 Induction noctumin (Ccr4) (mouse liver [2]): 9.0 fold
IL-1 Induction p65 NF-kappa B (Rela) (mouse liver [2]): 2.4 fold
IL-1 Induction phospholipid scramblase 1 (Plscr1) (mouse liver [2]): 5.6 fold
IL-1 Induction protein tyrosine phosphatase 4a1 (Ptp4a1) (mouse liver [2]): 1.2 fold
IL-1 Induction regulator for ribosome resistance homolog (Rrr) (mouse liver [2]): 3.3 fold
IL-1 Induction relB (Relb) (mouse liver [2]): 7.9 fold
IL-1 Induction rhoB (Arhb) (mouse liver [2]): 18.5 fold
IL-1 Induction serum amyloid A 3 (Saa3) (mouse liver [2]): 36.0 fold
IL-1 Induction serum amyloid A 4 (Saa4) (mouse liver [2]): 1.9 fold
IL-1 Induction suppressor of cytokine signaling 2 (Cish2) (mouse liver [2]): 1.7 fold
IL-1 Induction suppressor of cytokine signaling 3 (Cish3) (mouse liver [2]): 6.0 fold
IL-1 Induction transglutaminase (Tgm2) (mouse liver [2]): 8.0 fold
EE Induction C1Qc (C1qc) (mouse liver [3]): 2.3
EE Induction C1qB (C1qb) (mouse liver [3]): 2.8
EE Induction CD53 (Cd53) (mouse liver [3]): 2.9
EE Induction CD68 antigen (Cd68) (mouse liver [3]): 3.1
EE Induction CD97 (Cd97) (mouse liver [3]): 6.0
EE Induction Cytochrome P450, 17 (Cyp17) (mouse liver [3]): 32.3
EE Induction F4/80 (Emr1) (mouse liver [3]): 3.1
EE Induction H2A histone family, member X (H2afx) (mouse liver [3]): 5.1
EE Induction Keratin complex 2, basic, gene 4 (Krt2-4) (mouse liver [3]): 38.0
EE Induction apolipoprotein A-IV (Apoa4) (mouse liver [3]): 3.5
EE Induction apolipoprotein C2 (Apoc2) (mouse liver [3]): 2.2
EE Induction apoptosis inhibitory 6 (Api6) (mouse liver [3]): 3.3
EE Induction cadherin 1 (Cdh1) (mouse liver [3]): 2.6
EE Induction cathepsin S (Ctss) (mouse liver [3]): 4.0
EE Induction cell division cycle 2 homolog A (Cdc2a) (mouse liver [3]): 4.6
EE Induction colony stimulating factor 1 receptor (Csf1r) (mouse liver [3]): 2.8
EE Induction creatine kinase B (Ckb) (mouse liver [3]): 13.0
EE Induction cytochrome P450, 7b1 (Cyp7b1) (mouse liver [3]): 21.1
EE Induction desmocollin 2 (Dsc2) (mouse liver [3]): 5.0
EE Induction fatty acid binding protein 7, brain (Fabp7) (mouse liver [3]): 4.8
EE Induction interferon activated gene 203 (lfi203) (mouse liver [3]): 2.5
EE Induction interleukin 17 receptor (Il17r) (mouse liver [3]): 3.5
EE Induction leukemia inhibitory factor receptor (Lifr) (mouse liver [3]): 5.1
EE Induction lymphocyte antigen 86 (Ly86) (mouse liver [3]): 4.3
EE Induction lysosomal thiol reductase IP30 precursor (IP30) (mouse liver [3]): 3.7
EE Induction mannose receptor, C type 1 (Mrc1) (mouse liver [3]): 2.6
EE Induction myo-inositol-1-phosphate synthase (aa221219) (mouse liver [3]): 167.1
EE Induction properdin (Pfc) (mouse liver [3]): 2.9
EE Induction prostaglandin D2 synthase (Ptgds) (mouse liver [3]): 72.8
EE Induction proteinase 3 (Prtn3) (mouse liver [3]): 24.1
EE Induction pyrroline-5-carboxylate synthetase (Pycs) (mouse liver [3]): 3.3
EE Induction serum/glucocorticoid regulated kinase (Sgk) (mouse liver [3]): 4.5
EE Induction signal transducer and activator of transcription 5A (Stat5a) (mouse liver [3]): 4.1
EE Induction solute carrier family 11, member 1 (Slc11a1) (mouse liver [3]): 3.6
EE Induction stathmin (Kist) (mouse liver [3]): 3.5
EE Induction testosterone 16-alpha-hydroxylase (C-16-alpha) (Cyp2d9) (mouse liver [3]): 2.3
EE Induction trefoil factor 3, intestinal (Tff3) (mouse liver [3]): 16.3
EE Induction type llb Na/phosphate-cotransporter (Npt2b) (mouse liver [3]): 13.5
IL-1β induction of Fnk, JAB, LIX, and bcl-3 in the liver (Fnk, JAB, LIX, and bcl-3; liver): significantly blocked
IL-1β induction of Fnk, JAB, LIX, or bcl-3 in the lung (Fnk, JAB, LIX, and bcl-3; lung): no effect
IL-1β induction of Fnk and JAB in the spleen (Fnk, JAB, LIX, and bcl-3; spleen): blocked
